Test results as given in patent US20110104159A1, “COMPOSITIONS AND METHODS FOR TREATING, CONTROLLING, REDUCING, AMELIORATING, OR PREVENTING ALLERGY” (priority 2006, published 2011).
Where two headings read alike, the source gives them in different places.

Tests used:
[1] = tested on: ovalbumin-sensitized guinea pigs; assay: Conjunctival eosinophil infiltration (histology) in OVA-challenged guinea pigs; format: in vivo, guinea pig; settings: 0.4% eye drops; 24 h after OVA challenge; vs OVA-treated animals
Description: Male Dunkin-Hartley guinea pigs were actively immunized by i.p. injection of 200 μg OVA in 2 ml saline with 40 mg aluminum hydroxide (positive control) or saline alone (negative control), as previously reported. […] Negative controls received saline alone.
Conjunctival clinical symptoms were rated blind on both eyes using the following scale: 0, no symptoms; 1, slight conjunctival redness with or without tears; 2, mild conjunctival redness with tears and mild chemosis; 3, mild conjunctival redness with tears and moderate chemosis; 4, severe conjunctival redness with tears and partial lid eversion; 5, severe conjunctival redness with tears and lids more than half closed. The animals were euthanized 24 h after OVA challenge by i.p. injection of Tanax® (3 ml/kg; Hoechst AG, Frankfurt-am-Main, Germany) and the conjunctivas were carefully excised and each was divided into two samples for subsequent investigations. One sample was fixed in 10% buffered paraformaldehyde solution and paraffin-embedded; slides, 6 μm thick, were stained as described. The number of eosinophils in each field was counted under light microscopy (×500 magnification). In the other sample eosinophil peroxidase activity was measured.

[2] = tested on: monkey trabecular meshwork cells; settings: monkey trabecular meshwork cells [28]; cited from earlier work
[3] = conditions similar to the in vitro models used [28]; cited from earlier work
normotensive rabbits = settings: topical eye drops, normotensive rabbits [27]; cited from earlier work
ICAM-1 = assay: IL-4 and TNF-α-induced ICAM-1 expression in HConEpiC cell lysates (Luminex); format: cell-based, human; settings: all doses 10-1000 nM, 24 h
Description: Primary human conjunctival epithelial cells (HConEpiC) were seeded in two 24-well plates in EpiLife medium+1% Human Corneal Growth Supplement (HCGS; contains bovine pituitary extract, bovine insulin, hydrocortisone, bovine transferrin and mouse epidermal growth factor) at 2×10^4 cells/well. When the cells were confluent (4-5 days after seeding), they were incubated in EpiLife GF medium without glucocorticoids (EpiLife basic medium supplemented with 50 μg/ml bovine pituitary extract, 5 μg/ml bovine insulin and 5 ng/ml mouse epidermal growth factor) for 18 h. […] Culture medium was collected. Cytokine analysis was performed on the culture medium using 2 separate cytokine/chemokine Luminex kits (Kit 1: G-CSF, GM-CSF, IL-6, IL-8, IP-10, MCP-1, RANTES; Kit 2: eotaxin-3, CTACK). ICAM-1 expression was determined in cell lysates using a Luminex kit.
Median fluorescence intensity (MFI) was used to obtain the concentration of each cytokine and ICAM-1 in pg/ml based on the standard curve of each cytokine assayed by Luminex using the StatLIA software. ICAM-1 expression was expressed as pg/mg protein. All data were expressed as mean±SEM. Statistical analysis was performed using a two-way ANOVA-Contrast test with Factor 1 being drug and Factor 2 being dose (JMP 8 software, SAS Institute, Cary, N.C.). […] Data were analyzed either directly or after Box-Cox transformations (9, 10).

human HMC-1 cells = assay: Ionomycin-induced cytokine/chemokine release in HMC-1 cells (Luminex); format: cell-based; settings: HMC1, 18 h after ionomycin, 95% confidence limits in brackets
Description: A human mast cell line (HMC-1), a kind gift from Prof.
(§1) After 18 h stimulation at 37° C. in a 5% CO2 atmosphere, Interleukin-8 (IL-8) was measured in supernatants obtained from […] with a commercial ELISA kit from R&D Systems. The threshold sensitivity was 5 pg/ml and the inter- and intra-assay variations were less than 5%. The supernatants obtained from HMC-1 cells were aliquoted in duplicates for interleukin-6 (IL-6), IL-8, chemokine (C-C motif) ligand 5 (CCL5)/regulated upon activation, normal T-cell expressed and secreted (RANTES) and tumor necrosis factor-α (TNF-α) analysis using a high-throughput multiplex Luminex technology (Luminex 200 System; Luminex, Austin, Tx, USA) and Beadview software version 1.0 (Upstate Cell Signaling Solutions, Temecula, Calif.). Standard curves for known concentrations of recombinant human cytokines were used to convert median fluorescence intensities to cytokine concentrations in pg/ml. Only the linear portions of the standard curves were used to quantify cytokine concentrations, and in instances where the fluorescence reading exceeded the linear range of the standard curve, an appropriate dilution was performed to ensure that the concentration was in the linear portion of the curve.
The effect of BOL-303242-X on secretion of the reported cytokines and chemokines, 18 h after ionomycin ([…]) stimulation of HMC-1 cells, was determined in comparison to dexamenthasone. Compounds (1 nM-1000 nM) were added 45 min before ionomycin. Values were calculated by analyzing at least three separated experiments where concentration-response curves were measured. ^a95% Confidence limits.

human eosinophils = assay: Ionomycin-induced IL-8 secretion in human eosinophils (ELISA); format: cell-based; settings: Eosinophil, compound 45 min before ionomycin, supernatant after 18 h, read-out: IC50, IL-8 release induced by ionomycin in eosinophils
Description: as §1

IC50 (human HMC-1 cells; read-out: IC50 (nM), CCL5/RANTES release induced by ionomycin): 88.7 nM
IC50 (human HMC-1 cells; read-out: IC50 (nM), Interleukin-6 release induced by ionomycin): 83.2 nM
IC50 (human HMC-1 cells; read-out: IC50 (nM), Interleukin-8 release induced by ionomycin): 66.5 nM
IC50 (human HMC-1 cells; read-out: IC50 (nM), TNF-α release induced by ionomycin): 43.8 nM
IC50 (human eosinophils): 10.7 nM
Structure (SMILES): Cc1ccc2c(NC[C@](O)(CC(C)(C)c3cc(F)cc4c3OCC4)C(F)(F)F)cccc2n1 [BOL-303242-X, (R)-1,1,1-Trifluoro-4-(5-fluoro-2,3-dihydrobenzofuran-7-yl)-4-methyl-2-{[(2-methyl-5-quinolyl)amino]methyl}pentan-2-ol]
Eosinophil infiltration of the conjunctiva (histology) [1]: much less marked
Agonism in increasing myocilin expression [2]: partial glucocorticoid receptor agonist
Stability of the compound [3]: stable
Ability to increase intraocular pressure compared to dexamethasone (normotensive rabbits): reduced ability to increase intraocular pressure
IL-4 plus TNF-α-induced ICAM-1 expression in cell lysates (ICAM-1): significantly decreased
